Values joined by “and” are separate entries in the source; they are usually repeats but may differ in a detail not shown here. Identical values can stand only once. Counter-ions that a name gives are not always drawn.
Legend:
[1] = tested on: Conyza canadensis (L.) Cronq. (horseweed, ERICA); assay: Field trial, post-emergence weed control (% visual control), ERICA; format: in vivo
Protocol: (§1) These trials were conducted under field conditions in multiple states in the United States, including but not limited to Arkansas, Illinois, Indiana, Minnesota, Mississippi,
(§2) Nebraska, Ohio, Oklahoma, Texas, South Carolina and South Dakota. […] Treatments were applied with small plot backpack sprayers, using pressurized air or carbon dioxide (CO2) as propellant. Pressure varied from 22-50 pounds per square inch (psi), with spray tips typically of a Flat Fan type applying water diluent at 15 gallons per acre (GPA). Boom sizes varied from 6.3-10 ft in width. Treatments were applied to soybean, cotton, corn or fallow crop land. Weed sizes varied, but all treatments were applied as post-emergence treatments to weeds from 2 leaf to 2 tiller growth stages varying from 2 to 15 inches in height. The weed spectrum included, but was not limited to, Amaranthus palmeri S. Wats. (Palmer amaranth, AMAPA), Conyza canadensis (L.) Cronq. (horseweed, ERICA), Salsola tragus L. (Russian thistle, SASKR) and Sesbania exaltata (hemp sesbania, SEBEX).
(§3) The 2,4-D-choline salt formulation was a 456 g ae/L SL. […] All treatments were mixed in water at appropriate formulated product rates to achieve the desired rates as shown based on a unit area of application (hectare). Treatments were rated at 2 to 28 days after application (DAA) as compared to the untreated control plants. The trial sites had naturally occurring populations of weeds. The treated plots and control plots were rated blind at various intervals after application.
(§4) Colby's equation was used to determine the herbicidal effects expected from the mixtures (Colby, S. R. Calculation of the synergistic and antagonistic response of herbicide combinations. Weeds 1967, 15, 20-22). A t-test (alpha=0.05) between Colby predictions and observed combinations was used to test for significant differences indicating synergy or antagonism using replicate data.
(§5) The following equation was used to calculate the expected activity of mixtures containing two active ingredients, A and B:
(§6) Expected=A+B−(A×B/100) • A=observed efficacy of active ingredient A at the same concentration as used in the mixture; • B=observed efficacy of active ingredient B at the same concentration as used in the mixture.

[2] = tested on: Salsola tragus L. (Russian thistle, SASKR); assay: Field trial, post-emergence weed control (% visual control), SASKR; format: in vivo
Protocol: as §1, §2, §3, §4, §5, §6

[3] = tested on: Sesbania exaltata (hemp sesbania, SEBEX); assay: Field trial, post-emergence weed control (% visual control), SEBEX; format: in vivo
Protocol: as §1, §2, §3, §4, §5, §6

[4] = tested on: Amaranthus palmeri S. Wats. (Palmer amaranth, AMAPA); assay: Field trial, post-emergence weed control (% visual control), AMAPA; format: in vivo
Protocol: as §1, §2, §3, §4, §5, §6

AAD12 Soybean (GLXMA) = assay: Field crop tolerance trial in 2,4-D- and glufosinate-tolerant soybean (% visual injury, chlorosis, growth inhibition)
Protocol: as §1, §2
2,4-D- and glufosinate-tolerant soybeans, corn and cotton and optionally a glyphosate trait in a breeding (CP4 EPSPS) or a molecular stack (2mEPSPS) were used in all tolerance trials.
The 2,4-D-choline salt formulation was a 456 g ae/L SL. […] All treatments were mixed in water at appropriate formulated product rates to achieve the desired rates as shown based on a unit area of application (hectare). Treatments were rated at 2 to 28 days after application (DAA) as compared to the untreated control plants. The trial sites had naturally occurring populations of weeds. The treated plots and control plots were rated blind at various intervals after application. […]

For `CP(=O)(O)CCC(N)C(=O)O` (stereo not shown) [Glufosinate-ammonium, ammonium (3-amino-3-carboxypropyl)(methyl)phosphinate], the “Mean % weed control” value ([1]; 7 DAA, 542 g ae/ha) was 75.0%, the “Mean % weed control” value ([1]; 13 DAA, 542 g ae/ha) was 85.0% and the “Mean % weed control” value ([1]; 22 DAA, 542 g ae/ha) was 80.0%. For the same compound, the “Mean % weed control” value ([1]; 28 DAA, 542 g ae/ha) was 98.0%, the “Mean % weed control” value ([2]; 14 DAA, 542 g ae/ha) was 12.5% and the “Mean % weed control” value ([2]; 21 DAA, 542 g ae/ha) was 6.3%. The “Mean % weed control” value ([3]; 8 DAA, 542 g ae/ha) was 73.8%, the “Mean % weed control” value ([3]; 16 DAA, 542 g ae/ha) was 78.8% and the “Mean % weed control” value ([3]; 23 DAA, 542 g ae/ha) was 65.0%. The “Mean % weed control” value ([4]; 7 DAA, 542 g ae/ha) was 80.0%, the “Mean % weed control” value ([4]; 10 DAA, 542 g ae/ha) was 54.3% and the “Mean % weed control” value ([4]; 13 DAA, 542 g ae/ha) was 75.0%. The “Mean % weed control” value ([4]; 16 DAA, 542 g ae/ha) was 65.0%, the “Mean % weed control” value ([4]; 21 DAA, 542 g ae/ha) was 51.3% and the “Mean % weed control” value ([4]; 22 DAA, 542 g ae/ha) was 56.3%.

In the case of `O=C(O)COc1ccc(Cl)cc1Cl` [2,4-D-Choline salt, 2-hydroxy-N,N,N-trimethylethanaminium 2-(2,4-dichlorophenoxy)acetate], the “Mean % crop chlorosis” value (AAD12 Soybean (GLXMA); 2 DAA, 2130 g ae/ha) is reported as 0.0% and 2.3%, the “Mean % crop injury” value (AAD12 Soybean (GLXMA); 2 DAA, 2130 g ae/ha) is reported as 3.5% and 5.0% and the “Mean % crop chlorosis” value (AAD12 Soybean (GLXMA); 3 DAA, 1065 g ae/ha) is reported as 0.0%. The “Mean % crop injury” value (AAD12 Soybean (GLXMA); 3 DAA, 1065 g ae/ha) was 0.3%, the “Mean % crop chlorosis” value (AAD12 Soybean (GLXMA); 3 DAA, 2130 g ae/ha) was 0.0% and 1.3% and 0.8% and 0.5% and the “Mean % crop injury” value (AAD12 Soybean (GLXMA); 3 DAA, 2130 g ae/ha) was 0.3%. For the same compound, the “Mean % crop chlorosis” value (AAD12 Soybean (GLXMA); 4 DAA, 1065 g ae/ha) was 0.0%, the “Mean % crop injury” value (AAD12 Soybean (GLXMA); 4 DAA, 1065 g ae/ha) was 0.0% and the “Mean % crop chlorosis” value (AAD12 Soybean (GLXMA); 4 DAA, 2130 g ae/ha) was 0.0% and 0.7%. The “Mean % crop injury” value (AAD12 Soybean (GLXMA); 4 DAA, 2130 g ae/ha) was 1.0%, the “Mean % crop injury” value (AAD12 Soybean (GLXMA); 6 DAA, 1065 g ae/ha) was 4.0% and the “Mean % crop injury” value (AAD12 Soybean (GLXMA); 6 DAA, 2130 g ae/ha) was 4.0%. The “Mean % crop chlorosis” value (AAD12 Soybean (GLXMA); 7 DAA, 1065 g ae/ha) was 0.0%, the “Mean % crop chlorosis” value (AAD12 Soybean (GLXMA); 7 DAA, 2130 g ae/ha) was 0.0% and 1.7% and 1.3% and 3.0% and the “Mean % crop growth inhibition” value (AAD12 Soybean (GLXMA); 7 DAA, 2130 g ae/ha) was 1%. The “Mean % crop injury” value (AAD12 Soybean (GLXMA); 7 DAA, 2130 g ae/ha) was 4.0% and 13.3%, the “Mean % crop chlorosis” value (AAD12 Soybean (GLXMA); 8 DAA, 1065 g ae/ha) was 0.0% and the “Mean % crop chlorosis” value (AAD12 Soybean (GLXMA); 8 DAA, 2130 g ae/ha) was 0.0%. For the same compound, the “Mean % crop chlorosis” value (AAD12 Soybean (GLXMA); 9 DAA, 1065 g ae/ha) was 0.0%, the “Mean % crop injury” value (AAD12 Soybean (GLXMA); 9 DAA, 1065 g ae/ha) was 0.0% and the “Mean % crop chlorosis” value (AAD12 Soybean (GLXMA); 9 DAA, 2130 g ae/ha) was 0.0%. The “Mean % crop injury” value (AAD12 Soybean (GLXMA); 9 DAA, 2130 g ae/ha) was 0.0%, the “Mean % crop chlorosis” value (AAD12 Soybean (GLXMA); 13 DAA, 1065 g ae/ha) was 0.0% and the “Mean % crop injury” value (AAD12 Soybean (GLXMA); 13 DAA, 1065 g ae/ha) was 2.0%. For the same compound, the “Mean % crop chlorosis” value (AAD12 Soybean (GLXMA); 13 DAA, 2130 g ae/ha) was 0.0%, the “Mean % crop injury” value (AAD12 Soybean (GLXMA); 13 DAA, 2130 g ae/ha) was 3.3% and the “Mean % crop chlorosis” value (AAD12 Soybean (GLXMA); 14 DAA, 1065 g ae/ha) was 0.0%. The “Mean % crop injury” value (AAD12 Soybean (GLXMA); 14 DAA, 1065 g ae/ha) was 3.0% and 0.0%, the “Mean % crop chlorosis” value (AAD12 Soybean (GLXMA); 14 DAA, 2130 g ae/ha) was 0.0% and 0.8% and 1.3% and the “Mean % crop growth inhibition” value (AAD12 Soybean (GLXMA); 14 DAA, 2130 g ae/ha) was 0%. The “Mean % crop injury” value (AAD12 Soybean (GLXMA); 14 DAA, 2130 g ae/ha) was 2.3%, the “Mean % crop chlorosis” value (AAD12 Soybean (GLXMA); 15 DAA, 2130 g ae/ha) was 0.0% and the “Mean % crop growth inhibition” value (AAD12 Soybean (GLXMA); 15 DAA, 2130 g ae/ha) was 0%. The “Mean % crop injury” value (AAD12 Soybean (GLXMA); 15 DAA, 2130 g ae/ha) was 0.0%, the “Mean % weed control” value ([1]; 7 DAA, 1065 g ae/ha) was 40.0% and the “Mean % weed control” value ([1]; 13 DAA, 1065 g ae/ha) was 40.0%. For the same compound, the “Mean % weed control” value ([1]; 22 DAA, 1065 g ae/ha) was 40.0%, the “Mean % weed control” value ([1]; 28 DAA, 1065 g ae/ha) was 30.0% and the “Mean % weed control” value ([2]; 14 DAA, 1065 g ae/ha) was 67.5%. The “Mean % weed control” value ([2]; 21 DAA, 1065 g ae/ha) was 65.0%, the “Mean % weed control” value ([3]; 8 DAA, 800 g ae/ha) was 32.5% and the “Mean % weed control” value ([3]; 16 DAA, 800 g ae/ha) was 42.5%. The “Mean % weed control” value ([3]; 23 DAA, 800 g ae/ha) was 38.8%, the “Mean % weed control” value ([4]; 7 DAA, 800 g ae/ha) was 47.5% and the “Mean % weed control” value ([4]; 10 DAA, 1065 g ae/ha) was 55.0%. The “Mean % weed control” value ([4]; 13 DAA, 1065 g ae/ha) was 45.0%, the “Mean % weed control” value ([4]; 16 DAA, 800 g ae/ha) was 62.5% and the “Mean % weed control” value ([4]; 21 DAA, 1065 g ae/ha) was 38.8%. The “Mean % weed control” value ([4]; 22 DAA, 800 g ae/ha) was 48.8%.
